Data on 19 compounds can be found in patent publication US20230348442A1, “GALECTIN-3 INHIBITING 2-HYDROXYCYCLOALKANE-1-CARBAMOYL DERIVATIVES” (Idorsia Pharmaceuticals Ltd, priority 2020, published 2023).

For this assay, the target named is human Gal-3 (hGal-3) (Homo sapiens (Human), UniProt P17931). Put plainly: competitive binding assay: binding of biotinylated hGal-3 to microplate-adsorbed asialofetuin (ASF), spectrophotometric. Conditions: Activity on hGal-3; mean values of several measurements. In a few lines: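 Biotin-hGal-3/hGal-1 300-1000 ng/mL + cpd (DMSO dilutions) on ASF-coated plate, 3 h 4° C; wash; SA-HRP 80 ng/mL 1 h 4° C; wash; ABTS. IC50 = mean of several runs. hGal-1 preferably Cys→Ser (all six) mutant.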
human Gal-3 (hGal-3), sequence (P17931 whole entry): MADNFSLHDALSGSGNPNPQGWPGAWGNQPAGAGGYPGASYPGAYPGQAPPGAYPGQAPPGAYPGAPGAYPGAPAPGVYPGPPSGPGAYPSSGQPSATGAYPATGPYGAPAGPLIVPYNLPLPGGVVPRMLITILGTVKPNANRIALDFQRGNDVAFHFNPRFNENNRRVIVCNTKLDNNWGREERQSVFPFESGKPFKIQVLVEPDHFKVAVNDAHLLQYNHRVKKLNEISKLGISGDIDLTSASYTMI
In the case of `CO[C@@H]1[C@@H](n2cc(-c3cc(F)c(Br)c(F)c3)nn2)[C@@H](O)[C@@H](CO)O[C@H]1C(=O)N(c1cc(Cl)cc(C#N)c1)[C@@H]1CCC[C@H]1O` [Example 1.6.4R, (2R,3R,4S,5R,6R)-4-(4-(4-bromo-3,5-difluorophenyl)-1H-1,2,3-triazol-1-yl)-N-(3-chloro-5-cyanophenyl)-5-hydroxy-N-((1R,2R)-2-hydroxycyclopentyl)-6-(hydroxymethyl)-3-methoxytetrahydro-2H-pyran-2-carboxamide], the concentration for half-maximal inhibition (IC50) (as a rule, the midpoint of a concentration-inhibition curve) stood at 214 nM. For `CO[C@@H]1[C@@H](n2cc(-c3cc(F)cc(Br)c3)nn2)[C@@H](O)[C@@H](CO)O[C@H]1C(=O)N(c1cc(F)cc(C#N)c1)[C@H]1CCC[C@@H]1O` [Example 1.10.7, (2R,3R,4S,5R,6R)-4-(4-(3-bromo-5-fluorophenyl)-1H-1,2,3-triazol-1-yl)-N-(3-cyano-5-fluorophenyl)-5-hydroxy-N-((1S,2S)-2-hydroxycyclopentyl)-6-(hydroxymethyl)-3-methoxytetrahydro-2H-pyran-2-carboxamide] the value was 146 nM; for `CO[C@@H]1[C@@H](n2cc(-c3ccc(Br)c(F)c3F)nn2)[C@@H](O)[C@@H](CO)O[C@H]1C(=O)N(c1cc(Cl)cc(C#N)c1)[C@H]1CC[C@@H]1O` [Example 2.12.4, (2R,3R,4S,5R,6R)-4-(4-(4-bromo-2,3-difluorophenyl)-1H-1,2,3-triazol-1-yl)-N-(3-chloro-5-cyanophenyl)-5-hydroxy-N-((1S,2S)-2-hydroxycyclobutyl)-6-(hydroxymethyl)-3-methoxytetrahydro-2H-pyran-2-carboxamide], 45 nM.

Take `CO[C@@H]1[C@@H](n2cc(-c3ccc(Cl)cc3)nn2)[C@@H](O)[C@@H](CO)O[C@H]1C(=O)N(c1cc(Cl)cc(C#N)c1)[C@@H]1CCC[C@H]1O` [Example 1.18.4R, (2R,3R,4S,5R,6R)-N-(3-chloro-5-cyanophenyl)-4-(4-(4-chlorophenyl)-1H-1,2,3-triazol-1-yl)-5-hydroxy-N-((1R,2R)-2-hydroxycyclopentyl)-6-(hydroxymethyl)-3-methoxytetrahydro-2H-pyran-2-carboxamide]: the IC50 came out at 536 nM. On to `CO[C@@H]1[C@@H](n2cc(-c3cccc(F)c3)nn2)[C@@H](O)[C@@H](CO)O[C@H]1C(=O)N(c1cc(Br)cc(C#N)c1)[C@H]1CCC[C@@H]1O` [Example 1.15.5, (2R,3R,4S,5R,6R)-N-(3-bromo-5-cyanophenyl)-4-(4-(3-fluorophenyl)-1H-1,2,3-triazol-1-yl)-5-hydroxy-N-((1S,2S)-2-hydroxycyclopentyl)-6-(hydroxymethyl)-3-methoxytetrahydro-2H-pyran-2-carboxamide], for which the IC50 is 66 nM. The figure for `Cc1c(F)cc(-c2cn([C@H]3[C@@H](O)[C@@H](CO)O[C@@H](C(=O)N(c4cc(Cl)cc(Cl)c4)[C@H]4CCC[C@@H]4O)[C@@H]3O)nn2)cc1F` [Example 1H.4.2, (2R,3R,4S,5R,6R)-N-(3,5-dichlorophenyl)-4-(4-(3,5-difluoro-4-methylphenyl)-1H-1,2,3-triazol-1-yl)-3,5-dihydroxy-N-((1S,2S)-2-hydroxycyclopentyl)-6-(hydroxymethyl)tetrahydro-2H-pyran-2-carboxamide] is 22.7 nM. In the case of `CC(=O)O[C@@H]1[C@@H](n2cc(-c3cc(F)c(F)c(F)c3)nn2)[C@@H](O)[C@@H](CO)O[C@H]1C(=O)N(c1cc(Cl)cc(Cl)c1)[C@H]1CCC[C@@H]1O` [Example 1A.1.2, (2R,3R,4S,5R,6R)-2-((3,5-dichlorophenyl)((1S,2S)-2-hydroxycyclopentyl)carbamoyl)-5-hydroxy-6-(hydroxymethyl)-4-(4-(3,4,5-trifluorophenyl)-1H-1,2,3-triazol-1-yl)tetrahydro-2H-pyran-3-yl acetate], the IC50 was 23 nM. With `CO[C@@H]1[C@@H](n2cc(-c3cc(F)c(C)c(F)c3)nn2)[C@@H](O)[C@@H](CO)O[C@H]1C(=O)N(c1cc(Cl)cc(Cl)c1)[C@H]1CC[C@@H]1O` [Example 2.4.2, (2R,3R,4S,5R,6R)-N-(3,5-dichlorophenyl)-4-(4-(3,5-difluoro-4-methylphenyl)-1H-1,2,3-triazol-1-yl)-5-hydroxy-N-((1S,2S)-2-hydroxycyclobutyl)-6-(hydroxymethyl)-3-methoxytetrahydro-2H-pyran-2-carboxamide], the IC50 was 38 nM.

On to `CO[C@@H]1[C@@H](n2cc(-c3cc(F)c(C)c(F)c3)nn2)[C@@H](O)[C@@H](CO)O[C@H]1C(=O)N(c1cc(Cl)cc(C#N)c1)[C@@H]1CCC[C@H]1O` [Example 1.4.4R, (2R,3R,4S,5R,6R)-N-(3-chloro-5-cyanophenyl)-4-(4-(3,5-difluoro-4-methylphenyl)-1H-1,2,3-triazol-1-yl)-5-hydroxy-N-((1R,2R)-2-hydroxycyclopentyl)-6-(hydroxymethyl)-3-methoxytetrahydro-2H-pyran-2-carboxamide], for which the IC50 turned out to be 74.8 nM. For `CO[C@@H]1[C@@H](n2cc(-c3cc(F)c(F)c(F)c3)nn2)[C@@H](O)[C@@H](CO)O[C@H]1C(=O)N(c1cccc(Cl)c1)[C@H]1CC[C@@H]1O` [Example 2.1.1, (2R,3R,4S,5R,6R)-N-(3-chlorophenyl)-5-hydroxy-N-((1S,2S)-2-hydroxycyclobutyl)-6-(hydroxymethyl)-3-methoxy-4-(4-(3,4,5-trifluorophenyl)-1H-1,2,3-triazol-1-yl)tetrahydro-2H-pyran-2-carboxamide] the value was 109 nM; for `CO[C@@H]1[C@@H](n2cc(-c3cc(F)c(F)c(F)c3)nn2)[C@@H](O)[C@@H](CO)O[C@H]1C(=O)N(c1cc(Br)cc(Br)c1)[C@H]1CC[C@@H]1O` [Example 2.1.11, (2R,3R,4S,5R,6R)-N-(3,5-dibromophenyl)-5-hydroxy-N-((1S,2S)-2-hydroxycyclobutyl)-6-(hydroxymethyl)-3-methoxy-4-(4-(3,4,5-trifluorophenyl)-1H-1,2,3-triazol-1-yl)tetrahydro-2H-pyran-2-carboxamide], 72.5 nM. The figure for `CC(=O)O[C@@H]1[C@@H](n2cc(-c3cc(F)c(F)c(F)c3)nn2)[C@@H](O)[C@@H](CO)O[C@H]1C(=O)N(c1cc(Cl)cc(C#N)c1)[C@@H]1CC[C@H]1O` [Example 2A.1.4R, (2R,3R,4S,5R,6R)-2-((3-chloro-5-cyanophenyl)((1R,2R)-2-hydroxycyclobutyl)carbamoyl)-5-hydroxy-6-(hydroxymethyl)-4-(4-(3,4,5-trifluorophenyl)-1H-1,2,3-triazol-1-yl)tetrahydro-2H-pyran-3-yl acetate] is 80.6 nM. `CO[C@@H]1[C@@H](n2cc(-c3cc(F)cc(Br)c3)nn2)[C@@H](O)[C@@H](CO)O[C@H]1C(=O)N(c1cc(C)cc(C#N)c1)[C@H]1CCC[C@@H]1O` [Example 1.10.8, (2R,3R,4S,5R,6R)-4-(4-(3-bromo-5-fluorophenyl)-1H-1,2,3-triazol-1-yl)-N-(3-cyano-5-methylphenyl)-5-hydroxy-N-((1S,2S)-2-hydroxycyclopentyl)-6-(hydroxymethyl)-3-methoxytetrahydro-2H-pyran-2-carboxamide] registered an IC50 of 157 nM. `Cc1c(F)cc(-c2cn([C@H]3[C@@H](O)[C@@H](CO)O[C@@H](C(=O)N(c4cc(Cl)cc(C#N)c4)[C@H]4CCC[C@@H]4O)[C@@H]3O)nn2)cc1F` [Example 1H.4.4, (2R,3R,4S,5R,6R)-N-(3-chloro-5-cyanophenyl)-4-(4-(3,5-difluoro-4-methylphenyl)-1H-1,2,3-triazol-1-yl)-3,5-dihydroxy-N-((1S,2S)-2-hydroxycyclopentyl)-6-(hydroxymethyl)tetrahydro-2H-pyran-2-carboxamide]: the IC50 turned out to be 19.3 nM.

Turning to `CC(=O)O[C@@H]1[C@@H](n2cc(-c3cc(F)c(F)c(F)c3)nn2)[C@@H](O)[C@@H](CO)O[C@H]1C(=O)N(c1cc(Cl)cc(C#N)c1)[C@H]1CC[C@@H]1O` [Example 2A.1.4, (2R,3R,4S,5R,6R)-2-((3-chloro-5-cyanophenyl)((1S,2S)-2-hydroxycyclobutyl)carbamoyl)-5-hydroxy-6-(hydroxymethyl)-4-(4-(3,4,5-trifluorophenyl)-1H-1,2,3-triazol-1-yl)tetrahydro-2H-pyran-3-yl acetate], the IC50 turned out to be 36.2 nM. `CO[C@@H]1[C@@H](n2cc(-c3cc(F)c(F)c(F)c3)nn2)[C@@H](O)[C@@H](CO)O[C@H]1C(=O)N(c1cc(Br)cc(C#N)c1)[C@@H]1CCC[C@H]1O` [Example 1.1.5R, (2R,3R,4S,5R,6R)-N-(3-bromo-5-cyanophenyl)-5-hydroxy-N-((1R,2R)-2-hydroxycyclopentyl)-6-(hydroxymethyl)-3-methoxy-4-(4-(3,4,5-trifluorophenyl)-1H-1,2,3-triazol-1-yl)tetrahydro-2H-pyran-2-carboxamide] had an IC50 of 98.8 nM. For `CO[C@@H]1[C@@H](n2cc(-c3cc(F)cc(Br)c3)nn2)[C@@H](O)[C@@H](CO)O[C@H]1C(=O)N(c1cc(C)cc(C#N)c1)[C@H]1CC[C@@H]1O` [Example 2.10.8, (2R,3R,4S,5R,6R)-4-(4-(3-bromo-5-fluorophenyl)-1H-1,2,3-triazol-1-yl)-N-(3-cyano-5-methylphenyl)-5-hydroxy-N-((1S,2S)-2-hydroxycyclobutyl)-6-(hydroxymethyl)-3-methoxytetrahydro-2H-pyran-2-carboxamide] the value was 232 nM; for `CO[C@@H]1[C@@H](n2cc(-c3cc(F)c(F)c(F)c3)nn2)[C@@H](O)[C@@H](CO)O[C@H]1C(=O)N(c1cc(C)cc(Cl)c1)[C@@H]1CC[C@H]1O` [Example 2.1.3R, (2R,3R,4S,5R,6R)-N-(3-chloro-5-methylphenyl)-5-hydroxy-N-((1R,2R)-2-hydroxycyclobutyl)-6-(hydroxymethyl)-3-methoxy-4-(4-(3,4,5-trifluorophenyl)-1H-1,2,3-triazol-1-yl)tetrahydro-2H-pyran-2-carboxamide], 258 nM; for `CO[C@@H]1[C@@H](n2cc(-c3cc(F)c(F)c(F)c3)nn2)[C@@H](O)[C@@H](CO)O[C@H]1C(=O)N(c1cc(C)cc(Cl)c1)[C@H]1CCC[C@@H]1O` [Example 1.1.3, (2R,3R,4S,5R,6R)-N-(3-chloro-5-methylphenyl)-5-hydroxy-N-((1S,2S)-2-hydroxycyclopentyl)-6-(hydroxymethyl)-3-methoxy-4-(4-(3,4,5-trifluorophenyl)-1H-1,2,3-triazol-1-yl)tetrahydro-2H-pyran-2-carboxamide], 34.8 nM.
